Values of other authors as cited in patent US20040242457A1, “Use of anti-glaucoma drugs to treat visual defects associated with the use of a GABAergic agent” (priority 2003, published 2004).

Details: reports from the literature

- patients treated with GVG who develop visual field defects (VFDs): 25-50%
Structure (SMILES): C=CC(N)CCC(=O)O (racemic) [GVG, 4-amino-hex-5-enoic acid]
